Experimental data taken from patent US12692322B2, “KRAS specific antibodies and uses thereof” (Genentech, Inc., priority 2020, dated 2026).

Assays:
[1] = test system: SWII pocket of KRas^G12C-GDP and KRas^WT-GDP; assay: SPR of SWII ligands with SWII-blocked reference, with and without 2H11; format: binding, human
Description: Surface plasmon resonance (SPR) experiments with 2H11 anti-KRas antibody. A series S SA (streptavidin) chip was inserted into a Biacore T200 (GE Health Sciences). The instrument was primed into running buffer (50 mM HEPES pH 7.5, 150 mM NaCl, 0.2% (w/v) PEG-3350, 0.1% CM-dextran (w/v), 0.1 mM TCEP, 10 mM MgCl2, 100 nM GDP, and 2% (v/v) DMSO). KRas^G12C was pre-blocked at the 12 position with covalent binding KRas^G12C alkylator was captured to yield 2000-2500 response units (RU) on flow channel 1 (FC1) and FC3 to serve as the reference for KRas^WT and KRas^G12C and allow affinity measurement exclusively at the Switch II (SWII) pocket. KRas^WT or KRas^G12C was captured on FC2 and FC4 within 100 RU of the reference channel capture level and data was collected in FC 2-1, FC 4-3 mode. […] Analyte samples were tested […] in 2-fold dose response with 20-30 second contact time and 30 second dissociation. Data was analyzed in with a 1:1 affinity model in Biacore S200 Evaluation Software 1.0 and figures were made in Scrubber 2 (Biologic Software) (FIG. 5A and FIG. 5B).

[2] = molecular target: T1, alkylated KRas^G12C in H1171 KRas^G12C cells (Homo sapiens, UniProt P01116, G12C); assay: Immunofluorescence and high content imaging; format: cell-based; conditions: treatment for 16 hours
T1 construct: Immunoprecipitation of alkylated and un-alkylated KRas^G12C in H1171 KRAS^G12C mutant cancer cells; endogenous in cells; host or cells: H1171 (HCC1171) KRAS G12C mutant cancer cells
Description: Immunofluorescence and High Content Imaging Cells (20000 to 40000 cells per well depending on the cell line) were seeded into Poly-L-Lysine Coated 96-well plates (Cell Carrier Ultra; Perkin Elmer) and supplemented with complete medium (RPMI with 2% L-Glutamine and 10% FBS). The next day, cells were treated with KRas^G12C inhibitors at indicated concentrations and incubated for the indicated length of time. At the end of treatment, cells were washed twice with cold 1×PBS, fixed with 3% paraformaldehyde for 20 minutes at room temperature, washed for 10 minutes with 1×PBS, and the PFA was quenched with 50 mM NH4Cl for 10 minutes at room temperature. Cells were washed again with 1×PBS twice for 5 minutes, then permeabilized with 1× Perm/Wash Buffer (BD, Fisher Scientific) for 20 minutes at room temperature. Cells were then incubated with primary antibody diluted in Perm/Wash buffer at indicated concentration for 2 hours at room temperature. Cells were then washed three times with Perm/Wash buffer for 10 minutes each, and the incubated with conjugated fluorescence secondary antibody for 20 to 60 minutes (Alexa488 anti-human and Alexa647 anti-rabbit or anti-rat at 1:500 from Jackson ImmunoResearch Laboratories Inc.) 100 ml of 300 nM DAPI was added to each well for 15 minutes and then cells were washed twice with Perm/Wash buffer, and once with 1×PBS prior to imaging. […]

Row | Compound | affinity of SWII covalent molecules in the presence versus absence of 2H11 anti-KRas antibody [1] | alkylation of KRas^G12C by IF and immunoblot analysis [2]
1 | C=CC(=O)N1CCN(c2ncnc3c(F)c(-c4c(O)cccc4F)c(Cl)cc23)CC1 (atropisomer, axis not shown) [ARS-1620, (R)-1-(4-(6-chloro-8-fluoro-7-(2-fluoro-6-hydroxyphenyl)quinazolin-4-yl)piperazin-1-yl)prop-2-en-1-one] | greatly enhanced | almost complete alkylation
2 | C=CC(=O)N1CCN(c2ncnc3cc(-c4c(C)ccc5[nH]ncc45)c(Cl)cc23)CC1 (atropisomer, axis not shown) [GNE-1952, (R)-1-(4-(6-chloro-7-(5-methyl-TH-indazol-4-yl)quinazolin-4-yl)piperazin-1-yl)prop-2-en-1-one] | greatly enhanced | –
3 | C=CC(=O)N1CC(N2CCN(C(=O)CNc3cc(C4(C)CC4)c(Cl)cc3O)CC2)C1 [ARS-853, 1-(3-(4-((4-chloro-2-hydroxy-5-(1-methylcyclopropyl)phenyl)glycyl)piperazin-1-yl)azetidin-1-yl)prop-2-en-1-one] | greatly enhanced | –
